One block for each molecule: values may come before it.
Test: solvent given as SMILES
[1] = in c1cc(-c2cccc(-n3c4ccccc4c4ccccc43)c2)cc(-n2c3ccccc3c3ccccc32)c1

SMILES: CCCCCCn1c2cc(C(=O)OCC)ccc2c2c1c1ccc(C(=O)OCC)cc1n2CCCCCC
fluorescence lifetime (in CCCO): 6.3 ns

SMILES: c1ccc(-c2cc(-c3ccccc3)cc(-c3ccc4c(c3)C3(c5ccccc5-4)c4ccccc4-c4c3c3c5ccccc5c(-c5cc(-c6ccccc6)cc(-c6ccccc6)c5)cc3c3ccccc43)c2)cc1 (stereo not drawn)
fluorescence lifetime (in Cc1ccccc1): 2.14 ns

SMILES: COc1ccc2c3ccc(OC)cc3c3cc4c(C)cc(=O)oc4cc3c2c1
fluorescence lifetime (in ClC(Cl)Cl): 6.2 ns

SMILES: COC(=O)C(Cc1ccc2oc(-c3ccc(N(C)c4ccccc4)cc3)nc2c1)NC(=O)OC(C)(C)C (stereo not drawn)
fluorescence lifetime (in C1CCCCC1): 1.81 ns
fluorescence lifetime (in C1CCOC1): 5.29 ns
fluorescence lifetime (in C1COCCO1): 4.14 ns
fluorescence lifetime (in CC1CCCO1): 4.37 ns
fluorescence lifetime (in CC1COC(=O)O1): 4.3 ns
fluorescence lifetime (in CC#N): 4.23 ns
fluorescence lifetime (in CC(C)=O): 5.11 ns
fluorescence lifetime (in CC(C)CC(C)(C)C): 1.7 ns
fluorescence lifetime (in CC(C)CO): 4.24 ns
fluorescence lifetime (in CC(C)O): 4.41 ns
fluorescence lifetime (in CC(O)CO): 0.88 ns
fluorescence lifetime (in CCC(C)CC): 1.67 ns
fluorescence lifetime (in CCCCC): 1.88 ns
fluorescence lifetime (in CCCCCC): 1.66 ns
fluorescence lifetime (in CCCCCCCCC): 1.78 ns
fluorescence lifetime (in CCCCCCCCCC): 1.79 ns
fluorescence lifetime (in CCCCCCCO): 4.34 ns
fluorescence lifetime (in CCCCCCO): 4.64 ns
fluorescence lifetime (in CCCCCO): 5.44 ns
fluorescence lifetime (in CCCCO): 3.97 ns
fluorescence lifetime (in CCO): 1.59 ns
fluorescence lifetime (in CCOC(C)=O): 4.68 ns
fluorescence lifetime (in CCOCC): 4.4 ns
fluorescence lifetime (in CN(C)C=O): 5.1 ns
fluorescence lifetime (in CO): 0.76 ns
fluorescence lifetime (in COCCOC): 1.18 ns
fluorescence lifetime (in CS(C)=O): 4.74 ns
fluorescence lifetime (in Cc1ccccc1): 2.81 ns
fluorescence lifetime (in Cc1ccccc1C): 2.7 ns
fluorescence lifetime (in ClC(Cl)Cl): 4.71 ns
fluorescence lifetime (in ClCCl): 6.11 ns
fluorescence lifetime (in NC=O): 2.35 ns
fluorescence lifetime (in OC1CCCCC1): 4.88 ns
fluorescence lifetime (in OCCO): 0.41 ns
fluorescence lifetime (in c1ccccc1): 2.97 ns

SMILES: COc1cc(/C=C/c2nc(N3CCOCC3)c3c([n+]2[O-])CCCC3)cc(OC)c1OC
fluorescence lifetime (in ClCCl): 8.5 ns

SMILES: CC(C)(C)c1ccc(C(C)(C)C)c(N2C(=O)c3cccc4c(-c5ccc(-c6ccc(N(c7ccccc7)c7ccccc7)cc6)s5)ccc(c34)C2=O)c1
fluorescence lifetime (in Cc1ccccc1): 2.6 ns

SMILES: CN(C)c1ccc2nc(/C=C/c3cc4c5c(c3)CCCN5CCC4)c(=O)oc2c1
fluorescence lifetime (in C1COCCO1): 2.9 ns
fluorescence lifetime (in CC#N): 0.22 ns
fluorescence lifetime (in CC(C)=O): 0.8 ns
fluorescence lifetime (in CCCCCCC): 2.02 ns
fluorescence lifetime (in CCOC(C)=O): 2.4 ns
fluorescence lifetime (in CN(C)C=O): 0.18 ns
fluorescence lifetime (in CS(C)=O): 0.32 ns
fluorescence lifetime (in Cc1ccccc1): 2.6 ns
fluorescence lifetime (in ClC(Cl)Cl): 1.35 ns
fluorescence lifetime (in ClCCl): 1.35 ns

SMILES: Nc1ccc2ccc(O)cc2c1
fluorescence lifetime (in O): 7.69 ns

SMILES: CC1(C)[C@@H]2[C@@H]1[C@]1(c3ccccc3)N=NC2(c2ccccc2)C2C3C=CC(C3)C21 (stereo partly drawn)
fluorescence lifetime (in CC#N): 402 ns

SMILES: COc1ccc2cc(-c3ccccc3CC#N)c(=O)oc2c1
fluorescence lifetime (in ClC(Cl)Cl): 2.4 ns

SMILES: N#Cc1ccc(C[C@H](N)C(=O)O)cc1
fluorescence lifetime (in C1CCOC1): 3.65 ns
fluorescence lifetime (in CC#N): 3.73 ns
fluorescence lifetime (in CC(C)O): 4 ns
fluorescence lifetime (in CC(O)CO): 4.28 ns
fluorescence lifetime (in CCCCO): 4.6 ns
fluorescence lifetime (in CCCO): 4.4 ns
fluorescence lifetime (in CCO): 4.1 ns
fluorescence lifetime (in CO): 6.1 ns
fluorescence lifetime (in NC=O): 4.54 ns
fluorescence lifetime (in O): 7 ns
fluorescence lifetime (in O=CO): 8.1 ns

SMILES: CCNc1cc2oc(=O)cc(C)c2cc1C
fluorescence lifetime (in CC#N): 3.5 ns

SMILES: Cc1ccc(-c2cc(-c3ccc(N(C)C)cc3)c3c(N)nc(N4CCCC4)c(C#N)c3n2)cc1
fluorescence lifetime (in CC#N): 7.3 ns
fluorescence lifetime (in CC(C)=O): 10.3 ns
fluorescence lifetime (in CC(C)O): 11.2 ns
fluorescence lifetime (in CO): 3.6 ns
fluorescence lifetime (in ClC(Cl)Cl): 11.5 ns
fluorescence lifetime (in ClCCl): 12.6 ns
fluorescence lifetime (in c1ccccc1): 10.7 ns

SMILES: CCOC(=O)c1ccc2c(c1)[nH]c1c3ccc(C(=O)OCC)cc3[se]c21
fluorescence lifetime (in CCCO): 0.15 ns

SMILES: COc1ccc2c(c1)sc1[n+]2[B-](F)(F)OC(c2ccc(N(C)C)cc2)=N1
fluorescence lifetime (in Cc1ccccc1): 1.59 ns

SMILES: CN(C)c1ccc(/C=C2\CC/C(=C\c3ccc(C#N)cc3)C2=O)cc1
fluorescence lifetime (in C1CCOC1): 0.18 ns
fluorescence lifetime (in CC#N): 0.17 ns
fluorescence lifetime (in CC(C)=O): 0.23 ns
fluorescence lifetime (in CC(C)O): 0.21 ns
fluorescence lifetime (in CCCCO): 0.22 ns
fluorescence lifetime (in CCCCOC(C)=O): 1.01 ns
fluorescence lifetime (in CCCO): 0.18 ns
fluorescence lifetime (in CCO): 0.14 ns
fluorescence lifetime (in CCOC(=O)c1ccccc1): 1.24 ns
fluorescence lifetime (in CCOC(C)=O): 0.9 ns
fluorescence lifetime (in CCOCC): 0.89 ns
fluorescence lifetime (in CN(C)C=O): 0.18 ns
fluorescence lifetime (in CO): 0.13 ns
fluorescence lifetime (in CS(C)=O): 0.19 ns
fluorescence lifetime (in Cc1ccccc1): 0.56 ns
fluorescence lifetime (in ClC(Cl)(Cl)Cl): 0.17 ns
fluorescence lifetime (in ClC(Cl)Cl): 2.08 ns
fluorescence lifetime (in ClCCl): 1.29 ns
fluorescence lifetime (in Clc1ccccc1Cl): 2.18 ns
fluorescence lifetime (in O=C1CCCC1): 0.31 ns
fluorescence lifetime (in S=C=S): 0.28 ns
fluorescence lifetime (in c1ccccc1): 0.76 ns
fluorescence lifetime (in c1ccncc1): 0.41 ns

SMILES: COC(=O)c1cc(=O)n(C)c2cc(-c3cccc(N(C)C)c3)sc12
fluorescence lifetime (in ClCCl): 2.64 ns

SMILES: Cc1cc2ccccc2cc1C
fluorescence lifetime (in C1CCCCC1): 133 ns

SMILES: Cc1cc(C)c(C)c(B(c2c(C)c(C)c(N3c4ccccc4Oc4ccccc43)c(C)c2C)c2c(C)c(C)c(N3c4ccccc4Oc4ccccc43)c(C)c2C)c1C
fluorescence lifetime (in CC(C)(C)c1ccc(-n2c3ccc([Si](c4ccccc4)(c4ccccc4)c4ccccc4)cc3c3cc([Si](c4ccccc4)(c4ccccc4)c4ccccc4)ccc32)cc1): 2.9 ns

SMILES: N#Cc1c(-n2c3ccccc3c3ccccc32)c(-n2c3ccc(-c4ccccc4)cc3c3cc(-c4ccccc4)ccc32)c(-n2c3ccccc3c3ccccc32)c(-n2c3ccc(-c4ccccc4)cc3c3cc(-c4ccccc4)ccc32)c1-n1c2ccccc2c2ccccc21
fluorescence lifetime (in Cc1ccccc1): 5.8 ns
fluorescence lifetime [1]: 4.5 ns

SMILES: c1ccc2c(c1)Sc1ccc(-n3c4ccccc4c4ccccc43)cc1S2
fluorescence lifetime (in CC1CCCCC1): 9.4 ns
fluorescence lifetime (in O=P(c1ccccc1)(c1ccccc1)c1ccccc1Oc1ccccc1P(=O)(c1ccccc1)c1ccccc1): 3.5 ns
fluorescence lifetime [1]: 5.1 ns

The next lines start with the values.

fluorescence lifetime (in C1CCCCC1): 4.5 ns
SMILES: c1ccc(-c2cc3cccc[n+]3[b-]3c(-c4cccc5[b-]4[n+]4ccccc4cc5-c4ccccc4)cccc32)cc1

fluorescence lifetime (in ClCCl): 4.89 ns
SMILES: F[B-]1(F)n2c(cc3c4ccccc4c4ccccc4c32)-c2ccc3ccccc3[n+]21

fluorescence lifetime (in ClC(Cl)Cl): 3.11 ns
SMILES: CC1=CC(C)=[N+]2C1=C(c1ccc(I)cc1)c1c(C)cc(C)n1[B-]2(F)F

fluorescence lifetime (in C1CCCCC1): 0.8 ns
fluorescence lifetime (in CC#N): 1.2 ns
fluorescence lifetime (in CO): 1.1 ns
fluorescence lifetime (in ClCCl): 1.1 ns
SMILES: C(C#Cc1ccc2ccc3cccc4ccc1c2c34)#Cc1cccc2ccccc12

fluorescence lifetime (in C1COCCO1): 12.2 ns
fluorescence lifetime (in CCOC(C)=O): 8.2 ns
SMILES: COc1nc(Nc2ccc3cc4ccccc4cc3c2)nc(OC)n1

fluorescence lifetime (in ClCCl): 2.02 ns
SMILES: ClP1(Cl)=N[P@@](Cl)(Oc2ccc3ccc4cccc5ccc2c3c45)=N[P@@](Cl)(Oc2ccc3ccc4cccc5ccc2c3c45)=N1

fluorescence lifetime (in CC#N): 2.5 ns
SMILES: CCN(CC)c1ccc2cc3c(cc2c1)C1(c2ccccc2Oc2ccccc21)c1cc2cc(N(CC)CC)ccc2cc1C3=O

fluorescence lifetime (in ClCCl): 4.77 ns
SMILES: Cn1c(=O)cc(C(=O)c2ccccc2)c2sc(-c3ccc(OC(F)(F)F)cc3)cc21

fluorescence lifetime (in ClCCl): 2.48 ns
SMILES: CCN(CC)c1ccc2c(c1)oc(=O)c1cnc3c(cnn3-c3ccccc3)c12

fluorescence lifetime (in ClCCl): 6.71 ns
SMILES: CC1=C2c3ccccc3C(c3ccc[nH]3)=[N+]2[B-](F)(F)n2cccc21

fluorescence lifetime (in ClCCl): 2.98 ns
SMILES: c1ccn(-c2ccc(-c3cc(-c4ccc(-n5cccc5)cc4)cc(-c4ccc(-n5cccc5)cc4)c3)cc2)c1

fluorescence lifetime (in CO): 29 ns
SMILES: Oc1cc2ccc3cc(O)cc4ccc(c1)c2c34

fluorescence lifetime (in CC#N): 3.05 ns
SMILES: COc1ccc(-c2csc(/C(C#N)=C/c3ccc(Cl)cc3Cl)n2)cc1

fluorescence lifetime (in C1CCOC1): 2.05 ns
SMILES: CCCCCCOc1ccc(/C=C/c2ccc(N(c3ccc(/C=C/c4ccc(OCCCCCC)cc4)cc3)c3ccc(-c4nc5ccccc5nc4-c4ccc(N(c5ccc(/C=C/c6ccc(OCCCCCC)cc6)cc5)c5ccc(/C=C/c6ccc(OCCCCCC)cc6)cc5)cc4)cc3)cc2)cc1

fluorescence lifetime (in ClC(Cl)Cl): 0.62 ns
fluorescence lifetime (in ClCCl): 0.53 ns
SMILES: COc1cc2cc(OC)c(-c3ccc([N+](=O)[O-])cc3)cc2cc1-c1ccc([N+](=O)[O-])cc1

fluorescence lifetime (in C1CCCCC1): 2.7 ns
fluorescence lifetime (in CCOC(C)=O): 0.9 ns
SMILES: CC1=[N+]2C(=C(c3ccc(C=O)cc3)c3ccc(C)n3[B-]2(F)F)C=C1c1cc2n(c1)[B-](F)(F)[N+]1=CC=CC1=C2c1c(C)cc(C)cc1C

fluorescence lifetime (in N#Cc1ccc2c(c1)c1ccccc1n2-c1cccc(-n2c3ccccc3c3ccccc32)c1): 15.7 ns
SMILES: CC1(C)c2ccccc2N(c2ccc(-c3cnc(C#N)nc3)cc2)c2ccccc21

fluorescence lifetime (in c1cc(-n2c3ccccc3c3ccccc32)cc(-n2c3ccccc3c3ccccc32)c1): 134 ns
SMILES: O=C(c1ccc(N2c3ccccc3[Si](c3ccccc3)(c3ccccc3)c3ccccc32)cc1)c1ccc(N2c3ccccc3[Si](c3ccccc3)(c3ccccc3)c3ccccc32)cc1

fluorescence lifetime (in ClCCl): 9 ns
SMILES: COc1ccc(N(c2ccccc2)c2ccc3ccc4c(N(c5ccccc5)c5ccc(OC)cc5)ccc5ccc2c3c54)cc1

fluorescence lifetime (in ClC(Cl)Cl): 0.203 ns
SMILES: CN(C)c1ccc(/C=C/c2cc[n+](CCCCCCCCCCCC[n+]3ccc(/C=C/c4ccc(N(C)C)cc4)cc3)cc2)cc1

fluorescence lifetime (in ClCCl): 1.52 ns
SMILES: CCCCC(CC)COc1ccc2nc(-c3ccc(-c4ccc(OC)cc4)s3)sc2c1 (stereo not drawn)

fluorescence lifetime (in CC#N): 1.11 ns
fluorescence lifetime (in CS(C)=O): 1.05 ns
SMILES: c1ccc(-c2nc(-c3ccc(-c4nc(-c5ccccc5)c(-c5ccccc5)[nH]4)cc3)[nH]c2-c2ccccc2)cc1

fluorescence lifetime (in CC#N): 1.69 ns
fluorescence lifetime (in CCO): 2.94 ns
fluorescence lifetime (in CN(C)C=O): 2.16 ns
fluorescence lifetime (in O): 1.74 ns
SMILES: CCOC(=O)c1ccccc1-c1c2ccc(=[N+](CC)CC)cc-2oc2cc(N(CC)CC)ccc12

fluorescence lifetime (in CC1CCCCC1): 3.6 ns
SMILES: CC(C)(C)c1ccc2cc3c4cccc5cccc(c6cc(C(C)(C)C)cc(c2c1)c63)c54

fluorescence lifetime (in C1CCOC1): 3.89 ns
SMILES: F[B-]1(F)n2c(/C=C/c3ccc(C(=C(c4ccccc4)c4ccccc4)c4ccccc4)cc3)ccc2C(c2ccc(C(=C(c3ccccc3)c3ccccc3)c3ccccc3)cc2)=C2C=CC(/C=C/c3ccc(C(=C(c4ccccc4)c4ccccc4)c4ccccc4)cc3)=[N+]21

fluorescence lifetime (in CC#N): 12.1 ns
fluorescence lifetime (in ClCCl): 0.78 ns
SMILES: Cc1cc(-c2ccccc2)cc(C)[o+]1

fluorescence lifetime (in ClCCl): 4.67 ns
SMILES: CC(C)c1cccc(C(C)C)c1N1C(=O)c2cccc3c(Oc4ccccc4)ccc(c23)C1=O

From the Deep4Chem optical property database
